Test results: article PMC6541264, “Molecular mechanisms involved in drug-induced liver injury caused by urate-lowering Chinese herbs: A network pharmacology study and biology experiments” (PLoS ONE, 2019)

How the values were obtained:
Type in all cases: cell-based, human
[1] = MTT assay, cell viability of L-02 cells; details: human, L-02 (L02) normal hepatic cells, L-02, MTT, 24 h, read-out: cells viabilityrate
Procedure: (§1) The normal hepatic cell (L02) cell lines were obtained from the National Infrastructure of Cell Line Resources (Chinese Academy of Medical Sciences, Beijing, China), and maintained in Dulbecco’s modified Eagle’s medium (DMEM, 10-013-CVR) supplemented with 10% fetal bovine serum (FBS, Hyclone), 1% penicillin and streptomycin (PS, 100 IU/ml penicillin, 100 μg/ml streptomycin, Mediatech, 30-002-CI). All cells were incubated in a humidified atmosphere at 37°C with 5% CO2.
(§2) L-02 cells were trypsinized by 0.25% trypsin after reaching the confluence of 70–80% and plated in 96-well plates at the density of 1.6 × 10^3 […]. And L-02 cells were cultured for 24 hours in vitro before exposure to varying concentrations of different representative compounds with liver injury for further incubating in another 24 hours. Then, 20 μl of 0.25 mg/ml3-(4,5-dimethylthiazol-2-yl)-2,5-diphenyltetrazolium bromide (MTT)-tetrazolium salts (Sigma-Aldrich Corp., St. Louis, MO, USA) in PBS was added to each hole in 96-well plates. After 4 hours of incubation, the formazan crystals were dissolved by 150μl Dimethyl Sulphoxide (DMSO), and shocked to dissolve thoroughly, then the cell viability was measured by MTT method at 570 nm. All experiments were repeated in triplicate independently.

L-02 cells [2] = assay: MTT assay, cell viability of L-02 cells; details: dose of 60–90 μmol/L
Procedure: as §1, §2

L-02 cells [3] = assay: Biochemical indicators of hepatotoxicity (ALT, AST, LDH, ALP activity) of L-02 cells, without and with p38 inhibitor SB203580
Procedure: as §1
To determine how potential liver injury-compounds affected biochemical indicators of L-02 cells, we investigated the activities of AST, ALT, LDH and ALP in cell migration capacity under the different representative compounds conditions (representative compounds group), the inhibitor conditions (inhibitor group), and the negative control. For these experiments, three replicates were made for each concentration of the different representative compounds with liver injury, and each group was established three holes and cultured in 6 times repeatedly. […] Subsequently, the supernatant extraction of L02 cells was collected and centrifuged to detect the activities of AST, ALT, LDH, and ALP by chromatometry method.
To further and fully elucidating the mechanism of the liver injury caused by the representative compounds from urate-lowering Chinese herbs, we chose the p38α inhibitor, SB203580 to verify our findings. […] The specific composition information was shown in S2 Table. […] The Specific specific composition information is was shown in S4 Table.

p38α = assay: Western blot, expression of p-p38α/p38α in L-02 cells, without and with inhibitor SB203580
Text: After the examination of biochemical indicators for hepatotoxicity in the cell, the expression of crucial liver injury protein in L02 cell lines among different groups was compared by Western blot analysis. Briefly, the proteins from different groups were harvested and lysed using lysis buffer (Sigma-Aldrich) containing a proteinase inhibitor cocktail (Sigma-Aldrich), the equal amounts of protein were separated by electrophoresis on a pre-cast 10% SDS-polyacrylamide gel (Bio-Rad, Hercules, CA) and transferred to polyvinylidene difluoride membranes (Millipore, Bedford, MA). Next, the membrane was blocked in TBST-T containing 5% skim milk for 2 h at room temperature and probed with anti-beta-catenin, and incubated overnight with the indicated primary antibody, followed by incubation with the secondary antibodies at room temperature for another 2 h. Finally, all the immune blots were visualized by enhanced chemiluminescence (Pierce Biotechnology, Inc., Rockford, IL, USA) and western blots were performed at least three times.
According to the results of network pharmacology, we examined the expression levels of p38α. […] The Specific specific composition information is was shown in S3 Table. […] However, the mechanism of saikosaponin D causing liver injury still remained unclear.
To further and fully elucidating the mechanism of the liver injury caused by the representative compounds from urate-lowering Chinese herbs, we chose the p38α inhibitor, SB203580 to verify our findings. Seemingly, the ALT, AST, ALP, and LDH activities of each group decreased to varying degrees under the influence of inhibitor. The specific composition information was shown in S2 Table. […] The Specific specific composition information is was shown in S4 Table.

[4] = Table 5, L-02 supernatant, 24 h, 40μmol/L
[5] = Table 5, L-02 supernatant, 24 h, 60μmol/L
[6] = Table 5, L-02 supernatant, 24 h, 80μmol/L

COc1ccc2cc1Oc1ccc(cc1)C[C@H]1c3cc(c(OC)cc3CCN1C)Oc1c(OC)c(OC)cc3c1[C@H](C2)N(C)CC3 [Tetrandrine] gave a viability at 24 h, 40 μmol/L ([1]; 40 μmol/L) of 101 ± 9.72%, a viability at 24 h, 60 μmol/L ([1]; 60 μmol/L) of 91.8 ± 4.63% and a viability at 24 h, 80 μmol/L ([1]; 80 μmol/L) of 83.3 ± 5.22%. The “cell survival rate, in words” value (L-02 cells [2]) was “lower cell survival rate”, the ALT (L-02 cells [3]; S2 Table, L-02, 40μmol/L, no inhibitor) was 16.55± 0.71 U/L and the AST (L-02 cells [3]; S2 Table, L-02, 60μmol/L, no inhibitor) was 5.64± 0.56 U/L. The ALP (L-02 cells [3]; [4]) was 16.55±0.71 ^*^Δ King's unit /100ml, the ALT (L-02 cells [3]; [4]) was 4.36±0.35 U/L and the AST (L-02 cells [3]; [4]) was 713.48±49.44 ^*^Δ U/L. The LDH (L-02 cells [3]; [4]) was 0.79±0.08 U/L, the ALT (L-02 cells [3]; [5]) was 5.01±1.20 U/L and the AST (L-02 cells [3]; [5]) was 705.81±98.97^Δ U/L. The LDH (L-02 cells [3]; [5]) was 0.82±0.16 U/L, the ALP (L-02 cells [3]; [6]) was 17.45±0.35 ^**^ΔΔ King's unit /100ml and the ALT (L-02 cells [3]; [6]) was 4.84±0.86 U/L. For the same compound, the AST (L-02 cells [3]; [6]) was 736.08±77.41 ^*^Δ U/L, the LDH (L-02 cells [3]; [6]) was 0.93±0.07 U/L and the p-p38α/p38α (p38α; S3 Table, L-02, 24 hours of incubation, 40μmol/L) was 1.03±0.29. For the same compound, the p-p38α/p38α (p38α; S3 Table, L-02, 24 hours of incubation, 60μmol/L) was 0.98±0.14, the p-p38α/p38α (p38α; S3 Table, L-02, 24 hours of incubation, 80μmol/L) was 1.26±0.52 and the p-p38α/p38α (p38α; S4 Table, L-02, 24 hours, 40μmol/L+inhibitor (SB203580)) was 0.81±0.03. It also gave a p-p38α/p38α (p38α; S4 Table, L-02, 24 hours, 40μmol/L, no inhibitor) of 0.97±0.03, a p-p38α/p38α (p38α; S4 Table, L-02, 24 hours, 60μmol/L+inhibitor (SB203580)) of 0.98±0.17 and a p-p38α/p38α (p38α; S4 Table, L-02, 24 hours, 60μmol/L, no inhibitor) of 0.79±0.24. It also gave a p-p38α/p38α (p38α; S4 Table, L-02, 24 hours, 80μmol/L+inhibitor (SB203580)) of 1.28±0.26 and a p-p38α/p38α (p38α; S4 Table, L-02, 24 hours, 80μmol/L, no inhibitor) of 1.17±0.07.
